Assay [1] deals with T1, Human HDAC5 (Homo sapiens, UniProt Q9UQL6).
T1 construct: full length with C-terminal His tag, MW=51.1 kDa; His (C); host or cells: baculovirus expression system
Nature of the assay: HDAC5 biochemical assay, class IIa-specific substrate. To be noted: read-out: HDAC Isoform IC50 (nM) 5. The procedure, abridged: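 Full-length C-terminal His-tagged HDAC5 from baculovirus (0.05 ng/ul) incubated 30 min at room temperature with 50 μM Boc-Lys(trifluoroacetyl)-AMC and compound, Tris pH 8.0 buffer with BSA, 1% DMSO. Developer then releases AMC; fluorescence 360/460 nm.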

For assay [2], the target named is T2, Human HDAC11 (Homo sapiens, UniProt Q96DB2).
T2 construct: Human HDAC11 (full length); His (N); host or cells: baculovirus expression system
T2 sequence (Q96DB2 1-347): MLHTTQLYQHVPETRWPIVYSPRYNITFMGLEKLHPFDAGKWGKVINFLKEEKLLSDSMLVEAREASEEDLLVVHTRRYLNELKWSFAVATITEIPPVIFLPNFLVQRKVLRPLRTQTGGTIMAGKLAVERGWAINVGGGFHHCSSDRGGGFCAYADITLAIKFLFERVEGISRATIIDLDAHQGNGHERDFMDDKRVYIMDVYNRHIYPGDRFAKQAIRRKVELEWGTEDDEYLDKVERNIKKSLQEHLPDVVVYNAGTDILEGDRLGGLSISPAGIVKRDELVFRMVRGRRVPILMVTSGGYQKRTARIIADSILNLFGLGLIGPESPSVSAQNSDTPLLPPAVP
Put plainly: HDAC11 biochemical assay, class IIa-specific substrate. To be noted: read-out: HDAC Isoform IC50 (nM) 11. In a few lines: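 Full-length N-His human HDAC11 from baculovirus, 5 ng/μl, incubated with 50 μM Boc-Lys(trifluoroacetyl)-AMC for 30 min at 30 °C. Buffer: 50 mM Tris-HCl pH 8.0, 137 mM NaCl, 2.7 mM KCl, 1 mM MgCl2, 1 mg/mL BSA, 1% DMSO. Developer releases AMC; fluorescence read at 360/460 nm.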

The target of assay [3] is T3, Human HDAC10 (Homo sapiens, UniProt Q969S8).
T3 construct: Human HDAC10 (a.a. 1-481); GST (N); His (C); host or cells: baculovirus expression system
T3 sequence (Q969S8 1-481): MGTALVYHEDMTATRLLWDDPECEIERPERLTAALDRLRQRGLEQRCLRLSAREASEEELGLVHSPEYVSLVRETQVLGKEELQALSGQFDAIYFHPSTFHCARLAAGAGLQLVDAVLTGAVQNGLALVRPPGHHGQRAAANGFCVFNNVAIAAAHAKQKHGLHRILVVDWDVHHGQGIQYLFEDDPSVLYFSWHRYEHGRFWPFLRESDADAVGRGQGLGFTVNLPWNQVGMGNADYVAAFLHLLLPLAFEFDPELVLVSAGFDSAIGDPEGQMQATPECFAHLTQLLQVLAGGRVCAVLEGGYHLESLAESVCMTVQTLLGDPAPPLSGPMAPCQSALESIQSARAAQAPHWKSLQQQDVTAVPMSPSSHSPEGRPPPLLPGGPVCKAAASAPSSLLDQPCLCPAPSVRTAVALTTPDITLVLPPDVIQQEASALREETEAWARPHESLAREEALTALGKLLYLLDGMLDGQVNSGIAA
Put plainly: HDAC10 biochemical assay, AMC-labeled peptide substrate. To be noted: read-out: HDAC Isoform IC50 (nM) 10. In a few lines: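 Baculovirus-expressed GST/His-tagged human HDAC10 (aa 1-481), 12 ng/ul, incubated with 50 μM RHKK(Ac)AMC in Tris pH 8.0 buffer with BSA and 1% DMSO, 2 h at 30 °C. Developer then releases AMC, read at 360/460 nm.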

Assay [4] concerns the target T4, Human HDAC4 (Homo sapiens, UniProt P56524).
T4 construct: amino acids 627-1085 with N-terminal GST tag; GST (N); host or cells: baculovirus expression system
Nature of the assay: HDAC4 biochemical assay, class IIa-specific substrate. To be noted: read-out: HDAC Isoform IC50 (nM) 4. The procedure, abridged: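 GST-tagged human HDAC4 (aa 627-1085, baculovirus) at 0.004 ng/ul was incubated 30 min at room temperature with 50 μM class IIa-specific substrate BOC-Lys(trifluoroacetyl)-AMC in Tris-HCl pH 8.0 buffer with BSA, 1% DMSO. Developer then released AMC, read at 360/460 nm.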

The target of assay [5] is T5, Human HDAC1 (Homo sapiens, UniProt Q13547).
T5 construct: full length with C-terminal His-tag and C-terminal FLAG-tag; His (C); FLAG (C); host or cells: baculovirus expression system
Nature of the assay: HDAC1 biochemical assay, AMC-labeled peptide substrate. The note with it: read-out: HDAC Isoform IC50 (nM) 1. The procedure, abridged: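 Baculovirus-expressed full-length human HDAC1 with His and FLAG tags, 0.3 ng/ul, incubated 1 h at 30° C with compound and 50 μM RHKK(Ac)AMC in Tris pH 8.0 buffer with BSA and 1% DMSO. Developer then releases AMC from deacetylated substrate; fluorescence read at 360/460 nm.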

In assay [6] the target is T6, Human HDAC2 (Homo sapiens, UniProt Q92769).
T6 construct: full length with C-terminal GST-tag; GST (C); host or cells: baculovirus expression system
Nature of the assay: HDAC2 biochemical assay, AMC-labeled peptide substrate. The note with it: read-out: HDAC Isoform IC50 (nM) 2. In a few lines:
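Full-length human HDAC2 with C-terminal GST tag, baculovirus-expressed, at 0.07 ng/ul with 50 μM RHKK(Ac)AMC substrate in Tris-HCl pH8.0 buffer with BSA, 1% DMSO final. Incubated 1 hour at 30° C with compounds, then developer added; fluorescence read at 360/460 Ex/Em.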

Each structure is given as a SMILES string.

T1 sequence (Q9UQL6 656-1122 limits assumed): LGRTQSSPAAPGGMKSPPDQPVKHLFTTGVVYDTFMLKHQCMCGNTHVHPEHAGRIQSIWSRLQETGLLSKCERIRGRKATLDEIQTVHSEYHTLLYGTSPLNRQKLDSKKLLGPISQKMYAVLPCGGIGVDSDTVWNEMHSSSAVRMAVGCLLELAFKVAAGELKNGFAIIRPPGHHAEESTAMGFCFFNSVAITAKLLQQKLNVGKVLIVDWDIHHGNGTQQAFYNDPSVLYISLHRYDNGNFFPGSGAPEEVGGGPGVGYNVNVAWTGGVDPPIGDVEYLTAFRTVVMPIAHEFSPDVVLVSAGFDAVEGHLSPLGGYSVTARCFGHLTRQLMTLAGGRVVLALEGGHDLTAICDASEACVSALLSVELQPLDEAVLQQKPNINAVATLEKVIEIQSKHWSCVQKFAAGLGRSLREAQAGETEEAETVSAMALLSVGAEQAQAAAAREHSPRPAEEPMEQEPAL
T6 sequence (Q92769 whole entry): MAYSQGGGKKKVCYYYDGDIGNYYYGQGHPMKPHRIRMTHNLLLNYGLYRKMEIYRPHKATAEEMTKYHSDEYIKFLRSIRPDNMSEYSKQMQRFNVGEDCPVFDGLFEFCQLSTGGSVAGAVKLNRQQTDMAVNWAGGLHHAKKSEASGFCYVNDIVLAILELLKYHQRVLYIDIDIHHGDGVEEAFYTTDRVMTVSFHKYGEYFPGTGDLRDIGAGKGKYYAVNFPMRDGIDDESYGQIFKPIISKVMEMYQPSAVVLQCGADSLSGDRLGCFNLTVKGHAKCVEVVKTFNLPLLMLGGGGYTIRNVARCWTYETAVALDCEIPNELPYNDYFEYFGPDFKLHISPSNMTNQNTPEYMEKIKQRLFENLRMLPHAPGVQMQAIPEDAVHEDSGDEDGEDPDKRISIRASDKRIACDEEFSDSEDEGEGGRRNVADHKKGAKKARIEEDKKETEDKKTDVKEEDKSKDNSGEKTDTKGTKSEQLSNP
T5 sequence (Q13547 whole entry): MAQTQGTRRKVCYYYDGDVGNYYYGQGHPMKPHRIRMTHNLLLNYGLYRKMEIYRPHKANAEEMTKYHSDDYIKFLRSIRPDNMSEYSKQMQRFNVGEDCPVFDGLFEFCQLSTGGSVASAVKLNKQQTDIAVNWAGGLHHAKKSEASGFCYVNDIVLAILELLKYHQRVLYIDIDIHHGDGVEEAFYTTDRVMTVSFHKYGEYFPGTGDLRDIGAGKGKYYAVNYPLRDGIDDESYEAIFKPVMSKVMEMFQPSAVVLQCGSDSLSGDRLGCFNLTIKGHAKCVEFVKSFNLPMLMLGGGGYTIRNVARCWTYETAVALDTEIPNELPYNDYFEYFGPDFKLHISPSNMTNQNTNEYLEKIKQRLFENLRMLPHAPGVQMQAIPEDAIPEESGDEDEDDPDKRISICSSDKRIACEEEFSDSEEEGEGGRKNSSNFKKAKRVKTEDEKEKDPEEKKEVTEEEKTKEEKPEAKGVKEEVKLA
T4 sequence (P56524 627-1084 limits assumed): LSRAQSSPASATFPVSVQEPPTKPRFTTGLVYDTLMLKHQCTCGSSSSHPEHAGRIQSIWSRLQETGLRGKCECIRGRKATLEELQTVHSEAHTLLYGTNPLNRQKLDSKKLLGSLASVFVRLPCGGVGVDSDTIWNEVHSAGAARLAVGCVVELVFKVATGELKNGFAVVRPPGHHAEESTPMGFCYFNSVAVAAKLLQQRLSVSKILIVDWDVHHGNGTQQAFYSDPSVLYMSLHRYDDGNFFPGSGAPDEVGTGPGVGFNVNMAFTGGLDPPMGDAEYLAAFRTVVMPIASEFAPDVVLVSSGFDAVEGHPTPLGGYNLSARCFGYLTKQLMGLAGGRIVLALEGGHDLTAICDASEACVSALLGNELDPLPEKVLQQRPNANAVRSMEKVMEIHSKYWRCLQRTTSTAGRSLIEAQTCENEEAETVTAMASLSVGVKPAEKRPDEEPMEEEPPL

One may read the IC50 as the concentration needed to halve the response being measured. Take `COC1CN(Cc2ccnc(N(Cc3ccc(-c4noc(C(F)(F)F)n4)s3)c3cnccn3)c2)C1` [Example GH, N-{4-[(3-Methoxyazetidin-1-yl)methyl]pyridin-2-yl}-N-({5-[5-(trifluoromethyl)-1,2,4-oxadiazol-3-yl]thiophen-2-yl}methyl)pyrazin-2-amine]: the IC50 in assay [1] was at most 1000 nM; in assay [2] it was above 10000 nM; in assay [3], above 10000 nM; in assay [4] it was at most 10000 nM; in assay [5], above 10000 nM; in assay [6], above 10000 nM.

Take `O=C(c1nccnc1N(Cc1ccc(-c2noc(C(F)(F)F)n2)s1)c1cnccn1)N1CCC1` [Example GP, 3-(Azetidine-1-carbonyl)-N-(pyrazin-2-yl)-N-({5-[5-(trifluoromethyl)-1,2,4-oxadiazol-3-yl]thiophen-2-yl}methyl)pyrazin-2-amine]: the IC50 in assay [1] is at most 10000 nM; in assay [2], above 10000 nM; in assay [3], above 10000 nM; in assay [4] it was at most 10000 nM; in assay [5] it was above 10000 nM; in assay [6] it was above 10000 nM.

Consider `O=C(c1cnnc(N(Cc2ccc(-c3noc(C(F)(F)F)n3)s2)c2cnccn2)c1)N1CCS(=O)(=O)CC1` [Example ED, 4-{6-[(Pyrazin-2-yl)({5-[5-(trifluoromethyl)-1,2,4-oxadiazol-3-yl]thiophen-2-yl}methyl)amino]pyridazine-4-carbonyl}-1λ^6-thiomorpholine-1,1-dione], for which the IC50 in assay [1] is at most 1000 nM; in assay [2] it was above 10000 nM; in assay [3] it was above 10000 nM; in assay [4], at most 10000 nM; in assay [5] it was above 10000 nM; in assay [6], above 10000 nM.

On to `C[C@H]1CCCN1C(=O)c1cnnc(N(Cc2ccc(-c3noc(C(F)(F)F)n3)s2)c2cnccn2)c1` [Example GY, 5-[(2S)-2-Methylpyrrolidine-1-carbonyl]-N-(pyrazin-2-yl)-N-({5-[5-(trifluoromethyl)-1,2,4-oxadiazol-3-yl]thiophen-2-yl}methyl)pyridazin-3-amine], for which the IC50 is at most 1000 nM in assay [1]; above 10000 nM in assay [2]; above 10000 nM in assay [3]; at most 10000 nM in assay [4]; above 10000 nM in assay [5]; above 10000 nM in assay [6].

Take `O=C(c1cnnc(N(Cc2ccc(-c3noc(C(F)(F)F)n3)s2)c2cnccn2)c1)N1C2CCC1COC2` [Example GB, 5-{3-Oxa-8-azabicyclo[3.2.1]octane-8-carbonyl}-N-(pyrazin-2-yl)-N-({5-[5-(trifluoromethyl)-1,2,4-oxadiazol-3-yl]thiophen-2-yl}methyl)pyridazin-3-amine]: the IC50 in assay [1] is at most 1000 nM; in assay [2], above 10000 nM; in assay [3] it was above 10000 nM; in assay [4] it was at most 10000 nM; in assay [5] it was above 10000 nM; in assay [6], above 10000 nM.

These data come from US20210038607A1, “OXADIAZOLYLTHIOPHENE DERIVATIVES USEFUL AS HISTONE DEACETYLASE INHIBITORS” (Karus Therapeutics Limited, priority 2018, published 2021).
